From PubChem BioAssay AID2060895 (Molecular Pharmacology Branch, DTP, NCI, 2025)

System: PDC 899932-113-R3-J6 complex spheroid viability
Assay: Anticancer human tumor 899932-113-R3-J6-PDC patient-derived melanoma cell line growth inhibition [RAS]
Conditions: for viability, T/C: stronger effect = lower value; active means viability on the fitted dose curve at most 10% of control; inactive means the rest
Method in brief: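 Agents were tested in combination matrices in half-log decrements from a top concentration at or near clinical Cmax (10 microM if undetermined). Targets were multi-cell spheroids of tumour lines plus HUVEC and MSC stromal cells.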

[1] = curve of first compound, second compound 0.0316 µM
[2] = curve of first compound, second compound 0.1 µM
[3] = curve of first compound, second compound 0.316 µM
[4] = curve of first compound, second compound 1 µM
[5] = second compound 0.0316 µM, first compound 0.0316 µM
[6] = second compound 0.0316 µM, first compound 0.1 µM
[7] = second compound 0.0316 µM, first compound 0.316 µM
[8] = second compound 0.0316 µM, first compound 1 µM
[9] = second compound 0.0316 µM, first compound 3.16 µM
[10] = second compound 0.0316 µM, first compound 10 µM
[11] = second compound 0.1 µM, first compound 0.0316 µM
[12] = second compound 0.1 µM, first compound 0.1 µM
[13] = second compound 0.1 µM, first compound 0.316 µM
[14] = second compound 0.1 µM, first compound 1 µM
[15] = second compound 0.1 µM, first compound 3.16 µM
[16] = second compound 0.1 µM, first compound 10 µM
[17] = second compound 0.316 µM, first compound 0.0316 µM
[18] = second compound 0.316 µM, first compound 0.1 µM
[19] = second compound 0.316 µM, first compound 0.316 µM
[20] = second compound 0.316 µM, first compound 1 µM
[21] = second compound 0.316 µM, first compound 3.16 µM
[22] = second compound 0.316 µM, first compound 10 µM
[23] = second compound 1 µM, first compound 0.0316 µM
[24] = second compound 1 µM, first compound 0.1 µM
[25] = second compound 1 µM, first compound 0.316 µM
[26] = second compound 1 µM, first compound 1 µM
[27] = second compound 1 µM, first compound 3.16 µM
[28] = second compound 1 µM, first compound 10 µM
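Wherever viability, T/C is given: spheroids exposed to agents for seven days before readout; 100% = DMSO vehicle control wells.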

CC(C)NCC(C(=O)N1CCN(c2ncnc3c2C(C)CC3O)CC1)c1ccc(Cl)cc1 (stereo not drawn) + C=CC(=O)N1CCN(c2nc(OCC3CCCN3C)nc3c(F)c(-c4nc(N)cc(C)c4C(F)(F)F)c(Cl)cc23)C(C)C1
5980 nM: IC50 [3]
5300 nM: IC50 [1]
inactive: viability, T/C (second compound 0.00316 µM, first compound 0.0316 µM) 106% | viability, T/C (second compound 0.00316 µM, first compound 0.1 µM) 97.3% | viability, T/C (second compound 0.00316 µM, first compound 0.316 µM) 99.6% | viability, T/C (second compound 0.00316 µM, first compound 1 µM) 84.4% | viability, T/C (second compound 0.00316 µM, first compound 3.16 µM) 60.3% | viability, T/C (second compound 0.00316 µM, first compound 10 µM) 33% | viability, T/C (second compound 0.01 µM, first compound 0.0316 µM) 110% | viability, T/C (second compound 0.01 µM, first compound 0.1 µM) 105% | viability, T/C (second compound 0.01 µM, first compound 0.316 µM) 102% | viability, T/C (second compound 0.01 µM, first compound 1 µM) 81.3% | viability, T/C (second compound 0.01 µM, first compound 3.16 µM) 60.9% | viability, T/C (second compound 0.01 µM, first compound 10 µM) 36.8% | viability, T/C [5] 110% | viability, T/C [6] 101% | viability, T/C [7] 104% | viability, T/C [8] 82.7% | viability, T/C [9] 65.1% | viability, T/C [10] 32.6% | viability, T/C [11] 103% | viability, T/C [12] 110% | viability, T/C [13] 99% | viability, T/C [14] 89% | viability, T/C [15] 58.9% | viability, T/C [16] 41.9% | viability, T/C [17] 106% | viability, T/C [18] 105% | viability, T/C [19] 96.3% | viability, T/C [20] 83.7% | viability, T/C [21] 72.8% | viability, T/C [22] 33.6% | viability, T/C [23] 88.7% | viability, T/C [24] 104% | viability, T/C [25] 105% | viability, T/C [26] 89.5% | viability, T/C [27] 73.7% | viability, T/C [28] 31.7%
5200 nM: IC50 (curve of first compound, second compound 0.01 µM)
6010 nM: IC50 [4]
4890 nM: IC50 (curve of first compound, second compound 0.00316 µM)
5830 nM: IC50 [2]

CC(Nc1ccc2c(c1)OCCn1cc(N3C(=O)OCC3C(F)F)nc1-2)C(N)=O (stereo not drawn) + C#Cc1c(F)ccc2cc(O)cc(-c3ncc4c(N5CC6CCC(C5)N6)nc(OCC56CCCN5CC(F)C6)nc4c3F)c12
4560 nM: IC50 (curve of first compound, second compound 3.16 µM)
1780 nM: IC50 [1]
inactive: viability, T/C [5] 88.4% | viability, T/C [6] 87.2% | viability, T/C [7] 58.2% | viability, T/C [8] 58% | viability, T/C [9] 47.4% | viability, T/C [10] 30.6% | viability, T/C [11] 88.8% | viability, T/C [12] 78.6% | viability, T/C [13] 70.1% | viability, T/C [14] 57.3% | viability, T/C [15] 51.7% | viability, T/C [16] 35.1% | viability, T/C [17] 97.7% | viability, T/C [18] 83.3% | viability, T/C [19] 66% | viability, T/C [20] 63.5% | viability, T/C [21] 49.2% | viability, T/C [22] 33.8% | viability, T/C [23] 93% | viability, T/C [24] 76% | viability, T/C [25] 64.9% | viability, T/C [26] 61.5% | viability, T/C [27] 44.2% | viability, T/C [28] 39.8% | viability, T/C (second compound 3.16 µM, first compound 0.0316 µM) 101% | viability, T/C (second compound 3.16 µM, first compound 0.1 µM) 76.6% | viability, T/C (second compound 3.16 µM, first compound 0.316 µM) 71.4% | viability, T/C (second compound 3.16 µM, first compound 1 µM) 65% | viability, T/C (second compound 3.16 µM, first compound 3.16 µM) 60.9% | viability, T/C (second compound 3.16 µM, first compound 10 µM) 38% | viability, T/C (second compound 10 µM, first compound 0.0316 µM) 102% | viability, T/C (second compound 10 µM, first compound 0.1 µM) 90% | viability, T/C (second compound 10 µM, first compound 0.316 µM) 70% | viability, T/C (second compound 10 µM, first compound 1 µM) 63.9% | viability, T/C (second compound 10 µM, first compound 3.16 µM) 52.5% | viability, T/C (second compound 10 µM, first compound 10 µM) 32.5%
2440 nM: IC50 [3]
2610 nM: IC50 [2]
2760 nM: IC50 (curve of first compound, second compound 10 µM)
2240 nM: IC50 [4]

CCN1CCN(Cc2ccc(Nc3ncc(F)c(-c4cc(F)c5nc(C)n(C(C)C)c5c4)n3)nc2)CC1
inactive: viability, T/C (compound 0.00316 µM) 104% [middle of 4 runs] | viability, T/C (compound 0.01 µM) 97.6% [middle of 4 runs] | viability, T/C (compound 0.0316 µM) 97% [middle of 4 runs] | viability, T/C (compound 0.1 µM) 80.7% [middle of 4 runs] | viability, T/C (compound 0.316 µM) 71% [middle of 4 runs] | viability, T/C (compound 1 µM) 30.1% [middle of 4 runs]
583 nM [middle of 4 runs]: IC50 (curve of compound)

CC(=O)OC12COC1CC(O)C1(C)C(=O)C(O)C3=C(C)C(OC(=O)C(O)C(NC(=O)OC(C)(C)C)c4ccccc4)CC(O)(C(OC(=O)c4ccccc4)C21)C3(C)C (stereo not drawn) + CCn1c(-c2cc(N3CCN(C)CC3)cnc2C(C)OC)c2c3cc(ccc31)-c1csc(n1)CC(NC(=O)C1CC1C)C(=O)N1CCCC(N1)C(=O)OCC(C)(C)C2
< 31.6 nM: IC50 (curve of first compound, second compound 0.000949 µM) | IC50 (curve of first compound, second compound 0.003 µM) | IC50 (curve of first compound, second compound 0.00949 µM) | IC50 (curve of first compound, second compound 0.03 µM) | IC50 (curve of first compound, second compound 0.0949 µM) | IC50 (curve of first compound, second compound 0.3 µM)
active: viability, T/C (second compound 0.00949 µM, first compound 0.0316 µM) 3.98% | viability, T/C (second compound 0.00949 µM, first compound 0.1 µM) 3.52% | viability, T/C (second compound 0.00949 µM, first compound 0.316 µM) 3.63% | viability, T/C (second compound 0.00949 µM, first compound 1 µM) 3.09% | viability, T/C (second compound 0.00949 µM, first compound 3.16 µM) 3.96% | viability, T/C (second compound 0.00949 µM, first compound 10 µM) 4.11% | viability, T/C (second compound 0.03 µM, first compound 0.0316 µM) 2.05% | viability, T/C (second compound 0.03 µM, first compound 0.1 µM) 1.55% | viability, T/C (second compound 0.03 µM, first compound 0.316 µM) 1.79% | viability, T/C (second compound 0.03 µM, first compound 1 µM) 1.78% | viability, T/C (second compound 0.03 µM, first compound 3.16 µM) 1.72% | viability, T/C (second compound 0.03 µM, first compound 10 µM) 1.3% | viability, T/C (second compound 0.0949 µM, first compound 0.0316 µM) 1.14% | viability, T/C (second compound 0.0949 µM, first compound 0.1 µM) 1.02% | viability, T/C (second compound 0.0949 µM, first compound 0.316 µM) 1.61% | viability, T/C (second compound 0.0949 µM, first compound 1 µM) 0.79% | viability, T/C (second compound 0.0949 µM, first compound 3.16 µM) 0.68% | viability, T/C (second compound 0.0949 µM, first compound 10 µM) 0.72% | viability, T/C (second compound 0.3 µM, first compound 0.0316 µM) 1.95% | viability, T/C (second compound 0.3 µM, first compound 0.1 µM) 0.96% | viability, T/C (second compound 0.3 µM, first compound 0.316 µM) 1.47% | viability, T/C (second compound 0.3 µM, first compound 1 µM) 0.52% | viability, T/C (second compound 0.3 µM, first compound 3.16 µM) 0.57% | viability, T/C (second compound 0.3 µM, first compound 10 µM) 0.59%
inactive: viability, T/C (second compound 0.000949 µM, first compound 0.0316 µM) 18.6% | viability, T/C (second compound 0.000949 µM, first compound 0.1 µM) 18.4% | viability, T/C (second compound 0.000949 µM, first compound 0.316 µM) 26.5% | viability, T/C (second compound 0.000949 µM, first compound 1 µM) 36.3% | viability, T/C (second compound 0.000949 µM, first compound 3.16 µM) 45.5% | viability, T/C (second compound 0.000949 µM, first compound 10 µM) 47.2% | viability, T/C (second compound 0.003 µM, first compound 0.0316 µM) 8.34% | viability, T/C (second compound 0.003 µM, first compound 0.1 µM) 10.3% | viability, T/C (second compound 0.003 µM, first compound 0.316 µM) 12.4% | viability, T/C (second compound 0.003 µM, first compound 1 µM) 14.1% | viability, T/C (second compound 0.003 µM, first compound 3.16 µM) 18.3% | viability, T/C (second compound 0.003 µM, first compound 10 µM) 21.1%
